Results on 17 compounds are retold here after patent US8236947B2, “Quinoline derivatives and their use as 5-HT6 ligands” (Glaxo Group Limited, priority 2002, dated 2012).

The structures appear in SMILES notation. Counter-ions that a name gives are not always drawn.

For the first data set, the target named is human cloned 5-HT6 receptors (Homo sapiens, UniProt P50406). The data set is described as follows: affinity for the 5-HT6 receptor (procedures outlined in WO98/27081). In kind it is binding.
Chain of human cloned 5-HT6 receptors (P50406 whole entry): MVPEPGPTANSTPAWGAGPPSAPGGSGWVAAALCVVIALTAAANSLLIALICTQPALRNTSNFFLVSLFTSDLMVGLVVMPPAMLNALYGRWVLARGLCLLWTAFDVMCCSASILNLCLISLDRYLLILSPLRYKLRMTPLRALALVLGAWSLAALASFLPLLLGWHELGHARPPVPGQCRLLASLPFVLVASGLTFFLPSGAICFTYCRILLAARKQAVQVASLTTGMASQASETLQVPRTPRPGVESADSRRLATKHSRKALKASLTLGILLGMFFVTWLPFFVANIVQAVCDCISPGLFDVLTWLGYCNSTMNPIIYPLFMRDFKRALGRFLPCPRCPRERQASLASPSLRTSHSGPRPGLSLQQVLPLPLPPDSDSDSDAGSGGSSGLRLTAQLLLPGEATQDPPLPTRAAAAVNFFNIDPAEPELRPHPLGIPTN
Settings: not given
`O=S(=O)(c1ccccc1)c1cnc2c(N3CCNCC3)c(Cl)ccc2c1` [Example E10, 7-Chloro-3-phenylsulfonyl-8-piperazin-1-yl-quinoline hydrochloride] showed a Ki below 10 nM.

Staying with this data set, now noted: human cloned 5-HT6 receptors; read-out: pKi values at human cloned 5-HT6 receptors (converted).
In the case of `CN1CCN(c2cccc3cc(S(=O)(=O)c4ccccc4)cnc23)CC1` [Example E1, 8-(4-Methyl-piperazin-1-yl)-3-phenylsulfonylquinoline], the Ki is below 10 nM.
As to `O=S(=O)(c1cnc2c(N3CCNCC3)cccc2c1)c1ccccc1Cl` [Example E3, 3-(2-Chloro)phenylsulfonyl-8-piperazin-1-yl-quinoline hydrochloride], the Ki was below 10 nM.
Still for that read-out and setting: as for `O=S(=O)(c1cccc(Cl)c1)c1cnc2c(N3CCNCC3)cccc2c1` [Example E4, 3-(3-Chloro)phenylsulfonyl-8-piperazin-1-yl-quinoline hydrochloride], the figure is below 10 nM; as for `O=S(=O)(c1cnc2c(N3CCNCC3)cccc2c1)c1ccccc1F` [Example E5, 3-(2-Fluoro)phenylsulfonyl-8-piperazin-1-yl-quinoline hydrochloride], below 10 nM.
The same measure, in the same setting: as for `O=S(=O)(c1ccc(Cl)cc1)c1cnc2c(N3CCNCC3)cccc2c1` [Example E6, 3-(4-Chloro)phenylsulfonyl-8-piperazin-1-yl-quinoline hydrochloride], the figure is below 10 nM; as for `O=S(=O)(c1cccc(F)c1)c1cnc2c(N3CCNCC3)cccc2c1` [Example E7, 3-(3-Fluoro)phenylsulfonyl-8-piperazin-1-yl-quinoline hydrochloride], below 10 nM.
`O=S(=O)(c1cnc2c(N3CCNCC3)cccc2c1)c1ccc(Br)cc1OC(F)(F)F` [Example E8, 3-(4-Bromo-2-trifluoromethoxy)phenylsulfonyl-8-piperazin-1-yl-quinoline hydrochloride]: the Ki is below 10 nM.
On the same count and under the same terms, then `O=S(=O)(c1cccc(C(F)(F)F)c1)c1cnc2c(N3CCNCC3)cccc2c1` [Example E9, 8-Piperazin-1-yl-3-(3-trifluoromethyl)phenylsulfonylquinoline hydrochloride], with below 10 nM.
`Cc1cc(N2CCNCC2)c2ncc(S(=O)(=O)c3ccccc3)cc2c1` [Example E11, 6-Methyl-3-phenylsulfonyl-8-piperazin-1-yl-quinoline hydrochloride]: the Ki was below 10 nM.
Same read-out and setting: as for `C[C@@H]1CN(c2cccc3cc(S(=O)(=O)c4ccccc4)cnc23)CCN1` [Example E12, (R)-8-(3-Methyl)piperazin-1-yl-3-phenylsulfonylquinoline hydrochloride], the figure is below 10 nM.
For `C[C@H]1CN(c2cccc3cc(S(=O)(=O)c4ccccc4)cnc23)CCN1` [Example E13, (S)-8-(3-Methyl)piperazin-1-yl-3-phenylsulfonylquinoline hydrochloride], the Ki was below 10 nM.
Still for that read-out and setting: as for `O=S(=O)(c1ccccc1)c1cnc2c(N3CCCNCC3)cccc2c1` [Example E14, 8-Homopiperazin-1-yl-3-phenylsulfonylquinoline hydrochloride], the figure is below 10 nM; as for `CCN1CCN(c2cccc3cc(S(=O)(=O)c4ccccc4)cnc23)CC1` [Example E17, 8-(4-Ethyl-piperazin-1-yl)-3-phenylsulfonylquinoline hydrochloride], below 10 nM; as for `O=S(=O)(c1ccccc1)c1cnc2c(N3CCN4CCCC4C3)cccc2c1` (centres unmarked) [Example E37], below 10 nM.
For `O=S(=O)(c1ccccc1)c1cnc2c(N3C[C@@H]4C[C@H]3CN4)cccc2c1` [Example E43, 3-Phenylsulfonyl 8-({1S, 4S}2,5-diazabicyclo[2.2.1]heptan-2-yl) quinoline hydrochloride], the Ki was below 10 nM.

Test system in another data set: not given
Assay: not given
Settings: not given
Broadly, the melting point is the temperature, or range, at which the solid turns liquid. For `C[C@H]1CN(c2cccc3cc(S(=O)(=O)c4ccccc4)cnc23)CCN1` (as salt: hydrochloride) [Example E13, (S)-8-(3-Methyl)piperazin-1-yl-3-phenylsulfonylquinoline hydrochloride], the melting point was 266 to 269 °C (dec.).
